Test results published in US20230266309A1, “PROTEIN MICROARRAY, USE AND DETECTION METHOD THEREOF” (NATIONAL CHENG KUNG UNIVERSITY, priority 2021, published 2023).

Molecular target: T1, S proteins of wild-type SARS-CoV-2 virus and the SARS-CoV-2 D614G, B.1.1.7, B.1.351, P1, B.1.617, B.1.617.1, B.1.617.2, and B.1.617.3 variants (Homo sapiens, UniProt Q9BYF1)
T1 construct: purchased Sino Biological Inc. (Mainland China)
Format: binding
Conditions: FIG. 10; for ACE2 binding to the S protein: SARS-CoV-2 B.1.617.3 variant (excepted from the dose-dependent decrease); for ACE2 binding to the S proteins: wild-type and D614G, B.1.1.7, B.1.351, P1, B.1.617, B.1.617.1, B.1.617.2 variants

T1 sequence (Q9BYF1 18-740, stated change not applied): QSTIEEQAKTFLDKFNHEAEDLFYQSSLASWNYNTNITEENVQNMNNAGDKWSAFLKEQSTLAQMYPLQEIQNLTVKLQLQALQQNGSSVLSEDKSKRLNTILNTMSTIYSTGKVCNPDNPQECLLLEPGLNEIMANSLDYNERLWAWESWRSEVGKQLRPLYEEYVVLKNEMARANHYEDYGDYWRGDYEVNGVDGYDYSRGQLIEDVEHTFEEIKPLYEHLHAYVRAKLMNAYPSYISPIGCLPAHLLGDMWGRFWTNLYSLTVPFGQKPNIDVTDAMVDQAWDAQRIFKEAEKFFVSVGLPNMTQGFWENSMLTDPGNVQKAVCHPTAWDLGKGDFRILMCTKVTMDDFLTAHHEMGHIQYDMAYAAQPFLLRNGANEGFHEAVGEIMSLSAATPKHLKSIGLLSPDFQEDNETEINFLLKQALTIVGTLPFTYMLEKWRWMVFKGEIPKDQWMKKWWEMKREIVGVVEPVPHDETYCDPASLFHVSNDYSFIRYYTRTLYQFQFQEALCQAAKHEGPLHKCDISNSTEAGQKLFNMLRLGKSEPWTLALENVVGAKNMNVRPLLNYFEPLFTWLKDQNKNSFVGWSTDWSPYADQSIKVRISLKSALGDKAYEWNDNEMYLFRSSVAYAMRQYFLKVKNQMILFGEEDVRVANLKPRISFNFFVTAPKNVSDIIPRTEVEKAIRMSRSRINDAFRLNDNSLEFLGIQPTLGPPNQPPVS

Structure (SMILES): CCOC(=O)[C@H](CCc1ccccc1)N[C@@H](C)C(=O)N1[C@H](C(=O)O)C[C@@H]2CCC[C@@H]21 [Ramipril]
- ACE2 binding to the S protein: except for the SARS-CoV-2 B.1.617.3 variant
- ACE2 binding to the S proteins: dose-dependently decrease

Structure (SMILES): CCC[C@H](N[C@@H](C)C(=O)N1[C@H](C(=O)O)C[C@@H]2CCCC[C@@H]21)C(=O)OCC [Perindopril]
- ACE2 binding to the S protein: except for the SARS-CoV-2 B.1.617.3 variant
- ACE2 binding to the S proteins: dose-dependently decrease
